Measured values from patent US4522815A, “Anthracycline glycosides” (priority 1982, dated 1985).
Converted amounts (≈) assume the structure as drawn.

Legend:
[1] = system: ascitic P388 leukemia; assay: Antitumor activity against ascitic P388 leukemia in CDF-1 mice, treatment i.p. on day 1; format: in vivo; details: Table 5; 0.75 mg/kg i.p. day 1
Experimental: The primary screening […] was carried out in CDF-1 mice bearing ascitic P388 leukemia (10^6 cells/mouse). Both IIa and IIc were suspended in 10%. Tween 80 and injected intraperitoneally.
Results of the primary screening "in vivo" carried out in CDF-1 mice bearing P388 ascitic leukemia and treated i.p. the day after tumor transplantation, are reported in Table 5.
Antitumor activity against ascitic P388 leukekemia.
(§1) Treatment i.p. on day 1.
^a median survival time; % over untreated controls
^b long term survivors (≥ 60 days)
^c evaluated on the basis of autoptic findings on dead mice
(§2) ^d data of two experiments (range)
^e date of three experiments (range)
Antitumor activity of Ib and Id against ascitic P388
as §1

[2] = system: HeLa cells; assay: Colony inhibition test against HeLa cells in vitro (cloning efficiency), treatment for 24 hrs; format: cell-based; details: Homo sapiens, HeLa, 24 h, Table 3, 24 hrs
[3] = system: Gross leukemia; assay: Oral activity against i.v. transplanted Gross leukemia (i.v. comparators); format: in vivo, C3H/Me mice; details: Table 7, oral +1
Text: Results of studies performed in C3H/Me mice carrying i.v. transplanted Gross leukemia and treated i.v. the day after tumor transplantation, are reported in Table 6. […] The compounds Ib and Id were further investigated for oral activity on Gross leukemic transplanted i.v., in comparison with DNR, DX given i.v. and 4-dm DNR given oral route.
Oral activity of Ib and Id against Gross leukemia
^a days after transplantation
as §2

[4] = system: Gross leukemia; details: already demonstrated; cited from earlier work

**Q.** What does the source list for `CC(=O)[C@]1(O)Cc2c(O)c3c(c(O)c2[C@@H](O[C@H]2C[C@H](N)[C@H](O)[C@H](C)O2)C1)C(=O)c1ccccc1C3=O` [4-dm DNR, 4-demethoxy DNR, reference compound]?
**A.** LTS, long term survivors (≥ 60 days) [1]: 0/8; T/C, median survival time; % over untreated controls [1]: 163%; Toxic deaths (autoptic findings on dead mice) [1]: 0/8; activity at 0.0031 µg/mL ([2]; 3.1 ng/ml, read-out: No of colonies, % of untreated controls): 84%; activity at 0.0062 µg/mL ([2]; 6.2 ng/ml, read-out: No of colonies, % of untreated controls): 53%; activity at 0.0125 µg/mL ([2]; 12.5 ng/ml, read-out: No of colonies, % of untreated controls): 18%; activity at 0.025 µg/mL ([2]; 25 ng/ml, read-out: No of colonies, % of untreated controls): 0%; IC50 ([2]; HeLa colony inhibition, read-out: ID50 (the source's name)): ~6.3 ng/mL (≈ 0.0127 µM); T/C %, median survival time ([3]; 3 mg/kg): 150%; Toxic deaths ([3]; 3 mg/kg): 0/6; T/C %, median survival time ([3]; 3.6 mg/kg): 150%; Toxic deaths ([3]; 3.6 mg/kg): 0/6; T/C %, median survival time ([3]; 4.3 mg/kg): 216%; Toxic deaths ([3]; 4.3 mg/kg): 0/3; activity by oral route [4]: active by oral route
